In US7674816B2, “Substituted melatonin derivatives, process for their preparation, and methods of use” (Abraxis BioScience, LLC, priority 2003, dated 2010):
Like-named read-outs stand apart in the source and are kept apart here.

Tests used:
rats [1] = experiment: In vivo hypnotic activity: time to recovery of righting reflex after tail vein injection; details: 28 μmol/kg (5 mg/kg for propofol), in DMSO
Description: (§1) The suspension was centrifuged at 1000×g for 10 minutes at 4° C. The pellet was washed twice in assay buffer and reacted with radioactive ligand in presence or absence of […] at 10^−4 M final concentration. The amount of radioactivity remained on the Whatman filter following filtration of the reaction mix and two washes with assay buffer was determined using a liquid scintillation counter. Inhibition of radioactive ligand binding by melatonin represents the competitive binding of melatonin to the same site as the radioactive ligand. GABAA Cl channel were assayed using ^3H-TBOB. The binding was carried out in the presence of increasing concentration of melatonin and the KD determined graphically using the Hill plots. In vivo hypnotic activity was determined as follow. Drugs solubilized in DMSO were administered to rats by tail vein injection (N=5 rats per group). A dose level of 28 μmol/kg (5 mg/kg for propofol) was used to compensate for differences in molecular weight of the analogs. Anesthetic activity in vivo was determined as time to recovery of righting reflex following administration of the compounds.

Dawley rats = experiment: Response to tail clamping after single i.v. bolus; format: in vivo; details: single i.v. bolus 15 mg/kg, in 10% ethanol/16% Cremophor
Description: This example illustrates the tail clamping with melatonin analogs. Dawley rats (Harlan, Indianapolis, Ind., USA) were weighed and anaesthetized with isoflurane. In all rats, the right jugular vein was cannulated with a heparinized saline filled catheter. Studies were carried out 5-7 days after surgery.
Tail clamp was tested by application of a rubber-clad vascular clamp (22 cm DeBakey) across the proximal third of the tail. Purposeful movement of the hind limbs and/or the head was noted as a positive response.

GABAA Cl channel [2] = experiment: GABAA Cl channel, TBOB site competitive binding (3H-TBOB), single concentration; details: Conc. 1.0E−4 M, bovine hippocampus
From the text: (§2) The binding profile of exemplary inventive compounds to neurotransmitter receptor sites is set forth below in Table 1. The characterization of the receptors, isolation of the membrane, and enzyme assay have been described in detail previously (see, e.g., Cole et al., Life Sci., 35, 1755 (1984), Lawrence et al., J. Neurochem., 45(3), 798 (1985), Sweetnam et al., Mol. Pharmacology, 29, 299 (1986), Zarkovsky et al., Neuropharmacology, 26 (7A), 737 (1987), Li et al., Eur. J. Pharmacology, 413, 63 (2001), and Markela et al., Mol. Pharmacology, 52, 380 (1997)).
(§3) The melatonin binding site on GABAA was defined using a series of competitive binding assays. Frozen bovine hippocampus was thawed and homogenized in 40 volumes of ice-cold 0.32 M sucrose. The suspension was centrifuged at 1000×g for 10 minutes at 4° C. The pellet was washed twice in assay buffer and reacted with radioactive ligand in presence or absence of melatonin at 10^−4 M final concentration. The amount of radioactivity remained on the Whatman filter following filtration of the reaction mix and two washes with assay buffer was determined using a liquid scintillation counter. Inhibition of radioactive ligand binding by melatonin represents the competitive binding of melatonin to the same site as the radioactive ligand. GABAA agonist site, GABAA α-1 site, GABAA α-5 site, GABAA α-6 site, and GABAA Cl channel were assayed using ^3H-GABA, ^3H-flunitrazepam, ^3H-RY80, ^3H-Ro 15-4513, and ^3H-TBOB.

GABAA agonist site = GABAA agonist site competitive binding (3H-GABA); details: bovine hippocampus
From the text: as §2, §3

GABAA α-6 site [3] = experiment: GABAA alpha 6 site competitive binding (3H-Ro 15-4513); details: Conc. 1.0E−4 M, bovine hippocampus
From the text: as §2, §3

GABAA α-1 site [4] = experiment: GABAA alpha 1 site competitive binding (3H-flunitrazepam); details: Conc. 1.0E−4 M, bovine hippocampus
From the text: as §2, §3

GABAA Cl channel [5] = experiment: GABAA Cl channel binding constant determination (3H-TBOB, increasing concentration, Hill plots); details: bovine hippocampus
Description: as §1

rats [6] = details: cited from earlier work; for ED95 (95% CI, for loss of righting reflex): intravenous
GABAA α-6 site [7] = experiment: GABAA alpha 6 site competitive binding (3H-Ro 15-4513); details: Conc. 1.0E−3 M, bovine hippocampus
GABAA α-1 site [8] = experiment: GABAA alpha 1 site competitive binding (3H-flunitrazepam); details: Conc. 1.0E−3 M, bovine hippocampus
GABAA Cl channel [9] = experiment: GABAA Cl channel, TBOB site competitive binding (3H-TBOB), single concentration; details: Conc. 1.0E−3 M, bovine hippocampus

SMILES: COc1ccc2[nH]c(-c3cccc(C(F)(F)F)c3)c(CCNC(C)=O)c2c1 [drawing 22]
- Anesthesia Activity (Time to awakening, min) (rats [1]): 3.8 min

SMILES: COc1ccc2[nH]c(-c3ccc(F)cc3)c(CCNC(C)=O)c2c1 [drawing 26]
- # lack of response rat/tested rat (Dawley rats): 5/5
- Time of lack of response to the tail clamp (Dawley rats): 2 min

SMILES: COc1ccc2[nH]c(-c3ccccc3)c(CCNC(C)=O)c2c1 [drawing 25, reference compound]
- # lack of response rat/tested rat (Dawley rats): 0/5
- Time of lack of response to the tail clamp, min (Dawley rats): No effect

SMILES: COc1ccc2[nH]c(-c3ccccc3)c(CCNC(C)=O)c2c1 [2-Phenylmelatonin, N-(2-(5-methoxy-2-phenyl-1H-indol-3-yl)ethyl)acetamide]
- Specific binding, GABAA Ion Channels Cl−, TBOB site (inhibition of radioactive ligand binding) (GABAA Cl channel [2]): 84.28%
- Specific binding, GABAA Agonist site (inhibition of radioactive ligand binding) (GABAA agonist site; Conc. 1.0E−4 M): 0.33%
- Specific binding, GABAA Alpha 6 site (inhibition of radioactive ligand binding) (GABAA α-6 site [3]): 12.48%
- Specific binding, GABAA Alpha 1 site (inhibition of radioactive ligand binding) (GABAA α-1 site [4]): 35.16%

SMILES: CC(C)c1cccc(C(C)C)c1O [drawing 16, reference compound]
- IC50 (GABAA Cl channel [5]): 4.86 µM
- Anesthesia Activity (Time to awakening, min) (rats [1]): 20.8 min

SMILES: COc1ccc2[nH]c(-c3cccc(C(F)(F)F)c3)c(CCNC(C)=O)c2c1 [drawing 28]
- # lack of response rat/tested rat (Dawley rats): 5/5
- Time of lack of response to the tail clamp (Dawley rats): 5 min

SMILES: COc1ccc2[nH]c(-c3ccc(C)cc3)c(CCNC(C)=O)c2c1 [2-(4-Methylphenyl) melatonin, N-(2-(5-methoxy-2-p-tolyl-1H-indol-3-yl)ethyl)acetamide]
- Specific binding, GABAA Ion Channels Cl−, TBOB site (inhibition of radioactive ligand binding) (GABAA Cl channel [2]): 101.46%
- Specific binding, GABAA Alpha 6 site (inhibition of radioactive ligand binding) (GABAA α-6 site [3]): 32.93%
- Specific binding, GABAA Alpha 1 site (inhibition of radioactive ligand binding) (GABAA α-1 site [4]): 10.28%

SMILES: COc1ccc2[nH]c(-c3ccc(F)cc3)c(CCNC(C)=O)c2c1 [drawing 19]
- IC50 (GABAA Cl channel [5]): 27.9 µM
- Anesthesia Activity (Time to awakening, min) (rats [1]): 3.0 min

SMILES: COc1ccc2[nH]c(-c3ccc(C(F)(F)F)cc3)c(CCNC(C)=O)c2c1 [drawing 20]
- IC50 (GABAA Cl channel [5]): 13.1 µM
- Anesthesia Activity (Time to awakening, min) (rats [1]): 20.8 min

SMILES: COc1ccc2[nH]c(-c3ccc(C(F)(F)F)cc3)c(CCNC(C)=O)c2c1 [2-(4-Trifluoromethylphenyl) melatonin, N-(2-(2-(4-trifluoromethylphenyl)-5-methoxy-1H-indol-3-yl)ethyl)acetamide]
- Specific binding, GABAA Ion Channels Cl−, TBOB site (inhibition of radioactive ligand binding) (GABAA Cl channel [2]): 103.23%
- Specific binding, GABAA Alpha 6 site (inhibition of radioactive ligand binding) (GABAA α-6 site [3]): 25.87%
- Specific binding, GABAA Alpha 1 site (inhibition of radioactive ligand binding) (GABAA α-1 site [4]): 8.11%

SMILES: COc1ccc2[nH]c(-c3ccc(C(C)(C)C)cc3)c(CCNC(C)=O)c2c1 [drawing 29]
- # lack of response rat/tested rat (Dawley rats): 5/5
- Time of lack of response to the tail clamp (Dawley rats): 5 min

SMILES: CCCC(C)C1(CC)C(=O)NC(=S)NC1=O (centres unmarked) [thiopental]
- ED95 (95% CI, for loss of righting reflex) (rats [6]): 8 mg/kg

SMILES: COc1ccc(-c2[nH]c3ccc(OC)cc3c2CCNC(C)=O)cc1 [drawing 23]
- IC50 (GABAA Cl channel [5]): 19.9 µM
- Anesthesia Activity (Time to awakening, min) (rats [1]): 3.5 min

SMILES: CC(=O)NCCc1c(Cc2ccccc2)[nH]c2ccccc12 [Luzindole, reference compound]
- Specific binding, GABAA Ion Channels Cl−, TBOB site (inhibition of radioactive ligand binding) (GABAA Cl channel [2]): 47.55%
- Specific binding, GABAA Agonist site (inhibition of radioactive ligand binding) (GABAA agonist site; Conc. 1.0E−4 M): 5.84%
- Specific binding, GABAA Alpha 6 site (inhibition of radioactive ligand binding) (GABAA α-6 site [3]): 4.93%
- Specific binding, GABAA Alpha 1 site (inhibition of radioactive ligand binding) (GABAA α-1 site [4]): 5.09%

SMILES: COc1ccc2[nH]c(-c3ccc(C(F)(F)F)cc3)c(CCNC(C)=O)c2c1 [drawing 27]
- # lack of response rat/tested rat (Dawley rats): 4/5
- Time of lack of response to the tail clamp (Dawley rats): 15 min

SMILES: COc1ccc2[nH]c(-c3cccc(C(F)(F)F)c3)c(CCNC(C)=O)c2c1 [2-(3-Trifluoromethylphenyl) melatonin, N-(2-(2-(3-trifluoromethylphenyl)-5-methoxy-1H-indol-3-yl)ethyl)acetamide]
- Specific binding, GABAA Ion Channels Cl−, TBOB site (inhibition of radioactive ligand binding) (GABAA Cl channel [2]): 79.60%
- Specific binding, GABAA Alpha 6 site (inhibition of radioactive ligand binding) (GABAA α-6 site [3]): 25.39%
- Specific binding, GABAA Alpha 1 site (inhibition of radioactive ligand binding) (GABAA α-1 site [4]): 15.61%

SMILES: COc1ccc2[nH]c(-c3ccccc3)c(CCNC(C)=O)c2c1 [drawing 18]
- IC50 (GABAA Cl channel [5]): 108 µM

SMILES: COc1ccc2[nH]c(Br)c(CCNC(C)=O)c2c1 [2-Bromomelatonin, N-(2-(2-bromo-5-methoxy-1H-indol-3-yl)ethyl)acetamide]
- Specific binding, GABAA Alpha 6 site (inhibition of radioactive ligand binding) (GABAA α-6 site [7]): −12.69%
- Specific binding, GABAA Agonist site (inhibition of radioactive ligand binding) (GABAA agonist site; Conc. 1.0E−3 M): −8.55%
- Specific binding, GABAA Alpha 1 site (inhibition of radioactive ligand binding) (GABAA α-1 site [8]): 8.35%
- Specific binding, GABAA Ion Channels Cl−, TBOB site (inhibition of radioactive ligand binding) (GABAA Cl channel [9]): 51.87%

SMILES: COc1ccc2[nH]c(-c3ccc(F)cc3)c(CCNC(C)=O)c2c1 [2-(4-Fluorophenyl) melatonin, N-(2-(2-(4-fluorophenyl)-5-methoxy-1H-indol-3-yl)ethyl)acetamide]
- Specific binding, GABAA Ion Channels Cl−, TBOB site (inhibition of radioactive ligand binding) (GABAA Cl channel [2]): 110.10%
- Specific binding, GABAA Alpha 6 site (inhibition of radioactive ligand binding) (GABAA α-6 site [3]): 20.76%
- Specific binding, GABAA Alpha 1 site (inhibition of radioactive ligand binding) (GABAA α-1 site [4]): 28.80%

SMILES: CC(C)c1cccc(C(C)C)c1O [2,6-Diisopropylphenol, reference compound]
- Specific binding, GABAA Ion Channels Cl−, TBOB site (inhibition of radioactive ligand binding) (GABAA Cl channel [2]): 117.52%
- Effect of bolus injection on righting reflex (rats [6]; bolus injection of 10 mg/kg): immediate loss of righting reflex
- ED95 (95% CI, for loss of righting reflex) (rats [6]): 14.9 mg/kg
- Specific binding, GABAA Agonist site (inhibition of radioactive ligand binding) (GABAA agonist site; Conc. 1.0E−4 M): 12.48%
- Specific binding, GABAA Alpha 6 site (inhibition of radioactive ligand binding) (GABAA α-6 site [3]): −0.89%
- Specific binding, GABAA Alpha 1 site (inhibition of radioactive ligand binding) (GABAA α-1 site [4]): −14.31%

SMILES: COc1ccc2[nH]c(-c3ccc(C(C)(C)C)cc3)c(CCNC(C)=O)c2c1 [drawing 24]
- Anesthesia Activity (Time to awakening, min) (rats [1]): 20.3 min

SMILES: COc1ccc2[nH]cc(CCNC(C)=O)c2c1 [Melatonin, N-acetyl-5-methoxytryptamine]
- Specific binding, GABAA Alpha 6 site (inhibition of radioactive ligand binding) (GABAA α-6 site [7]): 17.50%
- Effect of bolus injection on righting reflex (rats [6]; bolus injection of 312 mg/mL): immediate loss of righting reflex
- Specific binding, GABAA Agonist site (inhibition of radioactive ligand binding) (GABAA agonist site; Conc. 1.0E−3 M): −3.11%
- Specific binding, GABAA Alpha 1 site (inhibition of radioactive ligand binding) (GABAA α-1 site [8]): 39.80%
- Specific binding, GABAA Ion Channels Cl−, TBOB site (inhibition of radioactive ligand binding) (GABAA Cl channel [9]): 39.44%

SMILES: COc1ccc2[nH]c(-c3ccc(C)cc3)c(CCNC(C)=O)c2c1 [drawing 21]
- IC50 (GABAA Cl channel [5]): 33.9 µM
- Anesthesia Activity (Time to awakening, min) (rats [1]): 4.8 min
